Experimental findings from US8815503B2, “Compositions and methods for immunostimulatory RNA oligonucleotides” (Rheinische Friedrich-Wilhelms-Universitat Bonn, priority 2005, dated 2014) are described below.

The subject of the data set is PBMC. Kind of data set: 193 ssRNA 4mer-motif library screen: IL-12 (IL-12p40) production in PBMC of six donors, poly-L-Arg complexation, ELISA at 44 hours, IL-12 index and adjusted IL-12 index. The data set is classed as cell-based, human. Also noted: key to Adjusted IL-12 index Mean: IL-12 index (ratio to 9.2sense) minus donor mean, averaged over 6 donors. Particulars: for Adjusted IL-12 index Mean: 193 ssRNA oligonucleotide library, data from six individual donors summarized, ascending order. The method, then:
FIG. 9: PBMC of six different healthy donors were isolated and stimulated with poly-L-arginine complexed ssRNA oligonucleotides in duplicates. 44 hours after stimulation IL-12p40 production was assessed in supernatant via ELISA. For all tested ssRNA oligonucleotides (table 3), the mean values of the measured duplicates were normalized to the positive control ssRNA oligonucleotide 9.2sense (5′-AGCUUAACCUGUCCUUCAA (SEQ ID NO: 194)) by dividing the mean value of tested oligonucleotide by the mean value of 9.2sense (=IL-12 index of a given oligonucleotide). Next, all individual IL-12 indices were adjusted to the mean value of all IL-12 indices by subtracting the mean value of all IL-12 indices from the individual IL-12 index of a given oligonucleotide (=adjusted IL-12 index). Data from six individual donors were summarized and were assorted in ascending order displaying the corresponding SEM (for a complete listing including numerical data see table 4). FIG. 9A discloses SEQ ID NOS 460-509, respectively, in order of appearance. FIG. 9B discloses SEQ ID NOS 510-559, respectively, in order of appearance. FIG. 9C discloses SEQ ID NOS 560-609, respectively, in order of appearance. FIG. 9D discloses SEQ ID NOS 610-652, respectively, in order of appearance.
All 193 ssRNA oligonucleotides were tested on PBMC of six individual healthy donors using poly-L-Arg for complexation. At 44 hours after stimulation with RNA oligonucleotides, supernatants were collected and IL-12 production was measured by ELISA. Prior to statistical analysis the raw data were processed as follows: for each cell culture plate the mean IL-12 value of the experimental duplicates for each tested ssRNA oligonucleotide were normalized to the ssRNA oligonucleotide RNA9.2sense (5′-AGCUUAACCUGUCCUUCAA-3′ (SEQ ID NO: 194)). This standard RNA oligonucleotide was included as a positive control on all cell culture plates. Normalization was performed by calculating the ratio of IL-12 induced by the tested oligonucleotide and IL-12 induced by the standard oligonucleotide RNA9.2sense. Thus, for each tested oligonucleotide in an individual donor a mean ratio of IL-12 induction was obtained. In the following, this mean of the ratios is referred to as IL-12 index (one value of IL-12 index per donor). […] The corresponding IL-12 index of oligonucleotide ANP175 for donor 3 was calculated to be 1.90 (=1725 pg/ml divided by 908 pg/ml).
Next, the means of all IL-12 indices for every individual donor were calculated. Then the adjusted IL-12 indices were calculated as IL-12 index minus the mean of all IL-12 indices of one individual donor. […] The adjusted IL-12 index of ANP175 was calculated: 1.90 minus 0.44=1.46. The adjusted IL-12 indices from all six donors were summarized by calculating the means and the corresponding standard error of mean. The data are depicted in ascending order (FIG. 9A, B, C, D). The adjusted IL-12 indices of the top thirty ssRNA oligonucleotides of all six donors were compared using a two-tailed Student's t-test (FIG. 10). For most combinations tested, a significant difference was observed when the interval between the analyzed pairs was at least eight or nine places in the assortment.

“AAAAAAAGAUCAAAAAAAA (RNA, backbone not given here) [ANP-Oligo 107]”: the “Adjusted IL-12 index Mean” value was −0.2.

Turning to “AAAAAAAGAUGAAAAAAAA (RNA, backbone not given here) [ANP-Oligo 108]”, the “Adjusted IL-12 index Mean” value amounted to 0.08.

Consider “AAAAAAAGAUUAAAAAAAA (RNA, backbone not given here) [ANP-Oligo 109]”, for which the “Adjusted IL-12 index Mean” value is on record as 0.22.

As for “AAAAAAAGCACAAAAAAAA (RNA, backbone not given here) [ANP-Oligo 110]”, the “Adjusted IL-12 index Mean” value is given as −0.58.

In the case of “AAAAAAAGCAGAAAAAAAA (RNA, backbone not given here) [ANP-Oligo 111]”, the “Adjusted IL-12 index Mean” value is listed as −0.32.

“AAAAAAAGCAUAAAAAAAA (RNA, backbone not given here) [ANP-Oligo 112]”: the “Adjusted IL-12 index Mean” value is recorded as 0.08.

For the sequence “AAAAAAAGCCCAAAAAAAA (RNA, backbone not given here) [ANP-Oligo 113]”, the “Adjusted IL-12 index Mean” value is listed as −0.54.

As for “AAAAAAAGCCGAAAAAAAA (RNA, backbone not given here) [ANP-Oligo 114]”, the “Adjusted IL-12 index Mean” value was −0.58.

Consider “AAAAAAAGCCUAAAAAAAA (RNA, backbone not given here) [ANP-Oligo 115]”, for which the “Adjusted IL-12 index Mean” value is reported as 0.15.

In the case of “AAAAAAAGCGCAAAAAAAA (RNA, backbone not given here) [ANP-Oligo 116]”, the “Adjusted IL-12 index Mean” value is −0.58.

With “AAAAAAAGCGGAAAAAAAA (RNA, backbone not given here) [ANP-Oligo 117]”, the “Adjusted IL-12 index Mean” value is −0.63.

As to “AAAAAAAGCGUAAAAAAAA (RNA, backbone not given here) [ANP-Oligo 118]”, the “Adjusted IL-12 index Mean” value amounted to 0.1.

Take “AAAAAAAGCUCAAAAAAAA (RNA, backbone not given here) [ANP-Oligo 119]”: the “Adjusted IL-12 index Mean” value was −0.48.

Turning to “AAAAAAAGCUGAAAAAAAA (RNA, backbone not given here) [ANP-Oligo 120]”, the “Adjusted IL-12 index Mean” value was −0.38.

With “AAAAAAAGCUUAAAAAAAA (RNA, backbone not given here) [ANP-Oligo 121]”, the “Adjusted IL-12 index Mean” value came to 0.24.

Turning to “AAAAAAAGGACAAAAAAAA (RNA, backbone not given here) [ANP-Oligo 122]”, the “Adjusted IL-12 index Mean” value is on record as −0.43.

Take “AAAAAAAGGAGAAAAAAAA (RNA, backbone not given here) [ANP-Oligo 123]”: the “Adjusted IL-12 index Mean” value is reported as −0.51.

Turning to “AAAAAAAGGAUAAAAAAAA (RNA, backbone not given here) [ANP-Oligo 124]”, the “Adjusted IL-12 index Mean” value amounted to 0.63.

Consider “AAAAAAAGGCCAAAAAAAA (RNA, backbone not given here) [ANP-Oligo 125]”, for which the “Adjusted IL-12 index Mean” value was −0.54.

With “AAAAAAAGGCGAAAAAAAA (RNA, backbone not given here) [ANP-Oligo 126]”, the “Adjusted IL-12 index Mean” value is listed as −0.54.

Turning to “AAAAAAAGGCUAAAAAAAA (RNA, backbone not given here) [ANP-Oligo 127]”, the “Adjusted IL-12 index Mean” value came out at 0.11.

Turning to “AAAAAAAGGGCAAAAAAAA (RNA, backbone not given here) [ANP-Oligo 128]”, the “Adjusted IL-12 index Mean” value is recorded as −0.64.

Turning to “AAAAAAAGGGGAAAAAAAA (RNA, backbone not given here) [ANP-Oligo 129]”, the “Adjusted IL-12 index Mean” value was −0.51.

Turning to “AAAAAAAGGGUAAAAAAAA (RNA, backbone not given here) [ANP-Oligo 130]”, the “Adjusted IL-12 index Mean” value is given as −0.44.

Regarding “AAAAAAAGGUCAAAAAAAA (RNA, backbone not given here) [ANP-Oligo 131]”, the “Adjusted IL-12 index Mean” value is given as 0.12.

As to “AAAAAAAGGUGAAAAAAAA (RNA, backbone not given here) [ANP-Oligo 132]”, the “Adjusted IL-12 index Mean” value is 0.47.

In the case of “AAAAAAAGGUUAAAAAAAA (RNA, backbone not given here) [ANP-Oligo 133]”, the “Adjusted IL-12 index Mean” value stood at 1.51.

For the sequence “AAAAAAAGUACAAAAAAAA (RNA, backbone not given here) [ANP-Oligo 134]”, the “Adjusted IL-12 index Mean” value turned out to be 0.42.

As for “AAAAAAAGUAGAAAAAAAA (RNA, backbone not given here) [ANP-Oligo 135]”, the “Adjusted IL-12 index Mean” value is on record as 0.67.

Turning to “AAAAAAAGUAUAAAAAAAA (RNA, backbone not given here) [ANP-Oligo 136]”, the “Adjusted IL-12 index Mean” value turned out to be 1.04.

Consider “AAAAAAAGUCCAAAAAAAA (RNA, backbone not given here) [ANP-Oligo 137]”, for which the “Adjusted IL-12 index Mean” value is listed as −0.27.

On to “AAAAAAAGUCGAAAAAAAA (RNA, backbone not given here) [ANP-Oligo 138]”, for which the “Adjusted IL-12 index Mean” value came out at 0.02.

With “AAAAAAAGUCUAAAAAAAA (RNA, backbone not given here) [ANP-Oligo 139]”, the “Adjusted IL-12 index Mean” value was found to be 0.05.

With “AAAAAAAGUGCAAAAAAAA (RNA, backbone not given here) [ANP-Oligo 140]”, the “Adjusted IL-12 index Mean” value is listed as 0.99.

“AAAAAAAGUGGAAAAAAAA (RNA, backbone not given here) [ANP-Oligo 141]”: the “Adjusted IL-12 index Mean” value is listed as 0.5.

For “AAAAAAAGUGUAAAAAAAA (RNA, backbone not given here) [ANP-Oligo 142]”, the “Adjusted IL-12 index Mean” value worked out at 1.23.

Take “AAAAAAAGUUCAAAAAAAA (RNA, backbone not given here) [ANP-Oligo 143]”: the “Adjusted IL-12 index Mean” value was determined as 0.56.

On to “AAAAAAAGUUGAAAAAAAA (RNA, backbone not given here) [ANP-Oligo 144]”, for which the “Adjusted IL-12 index Mean” value was 4.39.

For the sequence “AAAAAAAGUUUAAAAAAAA (RNA, backbone not given here) [ANP-Oligo 145]”, the “Adjusted IL-12 index Mean” value worked out at 1.32.

“AAAAAAAUAACAAAAAAAA (RNA, backbone not given here) [ANP-Oligo 146]”: the “Adjusted IL-12 index Mean” value is recorded as −0.16.

In the case of “AAAAAAAUAAGAAAAAAAA (RNA, backbone not given here) [ANP-Oligo 147]”, the “Adjusted IL-12 index Mean” value is given as 0.27.

For the sequence “AAAAAAAUAAUAAAAAAAA (RNA, backbone not given here) [ANP-Oligo 148]”, the “Adjusted IL-12 index Mean” value came to 0.7.

Take “AAAAAAAUACCAAAAAAAA (RNA, backbone not given here) [ANP-Oligo 149]”: the “Adjusted IL-12 index Mean” value worked out at 0.27.

“AAAAAAAUACGAAAAAAAA (RNA, backbone not given here) [ANP-Oligo 150]”: the “Adjusted IL-12 index Mean” value was −0.3.

For the sequence “AAAAAAAUACUAAAAAAAA (RNA, backbone not given here) [ANP-Oligo 151]”, the “Adjusted IL-12 index Mean” value was determined as 0.3.

For the sequence “AAAAAAAUAGCAAAAAAAA (RNA, backbone not given here) [ANP-Oligo 152]”, the “Adjusted IL-12 index Mean” value is on record as 0.35.

Consider “AAAAAAAUAGGAAAAAAAA (RNA, backbone not given here) [ANP-Oligo 153]”, for which the “Adjusted IL-12 index Mean” value turned out to be 0.42.

Regarding “AAAAAAAUAGUAAAAAAAA (RNA, backbone not given here) [ANP-Oligo 154]”, the “Adjusted IL-12 index Mean” value is on record as 1.57. Besides, the “adjusted IL-12 index” value (summarized from all six donors) is listed as 1.57.

On to “AAAAAAAUAUCAAAAAAAA (RNA, backbone not given here) [ANP-Oligo 155]”, for which the “Adjusted IL-12 index Mean” value is given as 0.33.

In the case of “AAAAAAAUAUGAAAAAAAA (RNA, backbone not given here) [ANP-Oligo 156]”, the “Adjusted IL-12 index Mean” value is 0.27.

On to “AAAAAAAUAUUAAAAAAAA (RNA, backbone not given here) [ANP-Oligo 157]”, for which the “Adjusted IL-12 index Mean” value is given as 0.46.

Turning to “AAAAAAAUCACAAAAAAAA (RNA, backbone not given here) [ANP-Oligo 158]”, the “Adjusted IL-12 index Mean” value was −0.39.

“AAAAAAAUCAGAAAAAAAA (RNA, backbone not given here) [ANP-Oligo 159]”: the “Adjusted IL-12 index Mean” value is on record as −0.28.
